Patent US20180085356A1, “METHOD OF TREATING DISEASE CHARACTERISED BY PROTEIN AGGREGATE DEPOSITION IN NEURONAL CELLS” (CHRONOS THERAPEUTICS LIMITED, priority 2013, published 2018)
Where two headings read alike, the source gives them in different places.

Key:
[1] = system: C. elegans expressing wild-type human SOD-1 in the body wall muscle; assay: C. elegans lifespan assay, wild-type SOD-1 strain; format: in vivo, Caenorhabditis elegans
Description: (§1) Tacrolimus was tested in a number of disease models using the nematode worm, Caenorhabditis elegans, in which aggregate-prone proteins associated with neurodegenerative diseases are expressed in certain cell types. The effect of tacrolimus was determined by measuring the lifespan of worms in the presence and absence of tacrolimus, using the following general methodology. All of the worms tested using these assays also contained, in addition to the transgene expressing the disease-related protein, a mutation in the bus-5 gene which confers drug-sensitivity.
(§2) C. elegans cultures were synchronised by incubating an asynchronous culture in basic sodium hypochlorite solution to kill everything but the bleach-resistant mature eggs. […] From this point on, each ageing population was inspected at regular intervals (e.g. daily) and viability assessed by counting the number of dead worms.
(§3) The cumulative number of dead worms for each population was used to generate a survival/viability plot to determine chronological lifespan (CLS). Survival was analysed using the Kaplan-Meier log-rank survival analysis method, using the Online Application for Survival (OASIS; see http://sbi.postech.ac.kr/oasis). […]
(§4) The effect of tacrolimus on C. elegans expressing wild-type or mutant human SOD-1 in the body wall muscle was determined. […]

[2] = system: C. elegans expressing mutant human SOD-1 (127X) in the body wall muscle; assay: C. elegans lifespan assay, mutant SOD-1 strain; format: in vivo, Caenorhabditis elegans
Description: as §1, §2, §3, §4

[3] = system: C. elegans expressing human alpha-synuclein in the body wall muscle; assay: C. elegans lifespan assay, alpha-synuclein strain; format: in vivo, Caenorhabditis elegans; settings: p<0.05 DMSO vs. Tacrolimus
Description: as §1
as §2, with “eggs. The eggs were added on to agar plates and then allowed to hatch and develop in the presence of the test compound (or vehicle) and bacterial food source.” for “eggs.”
as §3

[4] = system: C. elegans expressing YFP alone (Q0) in the body wall muscle; assay: C. elegans lifespan assay, YFP alone (Q0) strain; format: in vivo, Caenorhabditis elegans; settings: p<0.05 vs. Q0 DMSO
Description: as §1
as §2, with “eggs. The eggs were added on to agar plates and then allowed to hatch and develop in the presence of the test compound (or vehicle) and bacterial food source.” for “eggs.”
as §3

caspase-3 = assay: Motor neuron culture with Aβ1-42 insult: caspase-3 induction; format: cell-based, rat; settings: all 3 concentrations, greatest effect at 100 nM; control increased by 91%
Description: Primary motor neuron (MN) cultures generated from rat spinal cord were treated with 20 μM amyloid beta 1-42 peptide (Aβ1-42). This insult causes an acute increase in TDP-43 levels in the cells and serves as a model for the TDP-43 mislocalisation, aggregation and toxicity observed in the motor neurons of ALS patients (reviewed in Callizot et al, poster “Amyloid peptide and cytoplasmic TDP-43 accumulation in pathogenesis of ALS: an in vitro study”, http://www.neuro-sys.fr/IMG/pdf/poster_adpd2017_tdp43.pdf). This model was used to determine the effect of tacrolimus on TDP-43 toxicity in motor neurons.
A separate group of cells was incubated with a) mouse monoclonal anti-microtubule-associated-protein 2 (MAP-2) antibody, and b) rabbit polyclonal anti-caspase-3 antibody. This group was used to determine the number of caspase-3-positive MN, i.e. the number of overlapping MAP-2 and caspase-3-positive cells.

IL-6 = assay: Microglial inflammatory cytokine production by qPCR (LPS challenge); format: cell-based, rat; settings: 100 ng/ml LPS overnight
Description: To investigate the effect of tacrolimus on microglial function, rat microglia were isolated as follows. A primary glial co-culture was isolated from P2 Sprague Dawley rat pups. The cells were cultured until confluency and then the microglia were isolated from the confluent glial cells through mechanical shaking. The isolated microglial cells were then subjected to inflammatory challenge by overnight exposure to 100 ng/ml lipopolysaccharide (LPS), in the presence or absence of tacrolimus. Glial cell activity was monitored by determining cell viability (Cell Counting Kit-8), the presence of reactive oxygen species (by quantitative fluorescence measurement in the supernatant/cell lysate), microvesicle shedding (by monitoring vesicle formation in cells loaded with Calcein-AM and then challenged with 1 mM ATP) and inflammatory cytokine production (by qPCR).

[5] = Tacrolimus blood levels in healthy human volunteers given capsule; format: in vivo; settings: oral
Description: A hard gelatine capsule was filled with the following composition:
One capsule as above containing 0.3 mg tacrolimus was administered daily to healthy human volunteers for three successive days. […] Similarly, no change in TNF-α levels occurred as a result of administering 0.6 mg daily of tacrolimus to healthy volunteers. The average trough level of tacrolimus (level after 24 hours of administration of each dose) observed was approximately 220 pg/ml.

[6] = in vivo
Description: Pharmacokinetic analysis was carried out by the Applicant. […] Therefore, even accounting for species differences in pharmacokinetics, preferred oral doses of tacrolimus in humans for the treatment of ALS would be expected to be below 1.3 mg/day and are likely to be below 0.55 mg/day.
Based on pharmacokinetic analysis, an oral tacrolimus dose of 2 mg/kg/day in the mouse is believed to correspond to a human oral dose of about 0.33-0.44 mg/day for a 70 kg person.

ALS = settings: Pong et al., Current Drug Targets 2003; cited from earlier work
[7] = bec-1 RNAi, p>0.05 vs. bec-1 RNAi DMSO

With `C=CC[C@@H]1/C=C(\C)C[C@H](C)C[C@H](OC)[C@H]2O[C@@](O)(C(=O)C(=O)N3CCCC[C@H]3C(=O)O[C@H](/C(C)=C/[C@@H]3CC[C@@H](O)[C@H](OC)C3)[C@H](C)[C@@H](O)CC1=O)[C@H](C)C[C@@H]2OC` [tacrolimus, Tacrolimus] the lifespan ([1]; 10 μg/ml in NGM agar, p<0.05 DMSO vs. Tacrolimus) was “significant increase in lifespan”, the “increase in lifespan when bec-1 knocked down by RNAi” value [1, 7] was “virtually abolished” and the “increase in lifespan when bec-1 knocked down by RNAi” value [2, 7] was “virtually abolished”. The lifespan ([2]; p<0.05 DMSO vs. Tacrolimus) was “significant increase in lifespan”, the lifespan [3] was “significantly increasing the lifespan” and the lifespan [4] was “significantly increases lifespan”. For the same molecule, the “caspase-3 levels in response to Aβ1-42 insult” value (caspase-3) was “increase was less”, the “LPS induction of IL-6 expression” value (IL-6) was “significantly reduced” and the average peak level ([5]; 0.3 mg capsule daily, three days) was “approximately 3700 pg/mL”. It also gave a concentration at 24 h ([5]; human, blood, two capsules, single dose of 0.6 mg, read-out: expected trough level) of roughly 0.44 ng/mL, an AUC ([5]; human, blood, 0.3 mg capsule daily, three days, read-out: average area under the curve AUC 0_t) of roughly 23.5 ng·h/mL and a concentration at 24 h ([5]; human, blood, 0.3 mg capsule daily, three days, read-out: average trough level (after 24 hours of administration of each dose)) of roughly 0.22 ng/mL. The “human oral dose corresponding to oral dose of 2 mg/kg/day in the mouse” value [6] was 0.44-0.33 and the “efficacy in the treatment of ALS” value (ALS) was “ineffective”.
